Assay results taken from patent publication US20240116897A1, “BENZOTHIAZOLE AND BENZIMIDAZOLE DERIVATIVES, PHARMACEUTICALLY ACCEPTABLE SALT THEREOF, PREPARATION METHOD THEREFOR, AND PHARMACEUTICAL COMPOSITION COMPRISING SAME AS ACTIVE INGREDIENT” (KOREA RESEARCH INSTITUTE OF CHEMICAL TECHNOLOGY, priority 2021, published 2024).
Read-outs that look alike come from different tables or passages of the source.

Assays:
WI38 cells = details: human, 48 h
Protocol: (§2) LDH released is measured to determine whether a compound is toxic.
(§3) Thermo's Cat. No. 88953 LDH Cytotoxicity assay kit was used. 20,000 cells were seeded in a 96 well plate and treated with 100 μM and 500 μM compounds after 24 hours of culture. After 48 hours, transfer 50 μL of the compound-treated culture supernatant to a new 96-well plate, add 50 μL of substrate mix buffer provided in the kit, block light, and react at room temperature for 30 minutes. After adding 50 μL of Stop solution, the absorbance was measured at 490 nm using a microplate reader (Molecular Device, spectramax i3).

SIRT7 protein = target: T1, SIRT7 protein (Homo sapiens, UniProt Q9NRC8); experiment: SIRT Glo assay, inhibitory activity against Sirt7; format: biochemical; details: 10 μM compound
T1 construct: purchased SignalChem S41-30H
T1 sequence (Q9NRC8 1-400): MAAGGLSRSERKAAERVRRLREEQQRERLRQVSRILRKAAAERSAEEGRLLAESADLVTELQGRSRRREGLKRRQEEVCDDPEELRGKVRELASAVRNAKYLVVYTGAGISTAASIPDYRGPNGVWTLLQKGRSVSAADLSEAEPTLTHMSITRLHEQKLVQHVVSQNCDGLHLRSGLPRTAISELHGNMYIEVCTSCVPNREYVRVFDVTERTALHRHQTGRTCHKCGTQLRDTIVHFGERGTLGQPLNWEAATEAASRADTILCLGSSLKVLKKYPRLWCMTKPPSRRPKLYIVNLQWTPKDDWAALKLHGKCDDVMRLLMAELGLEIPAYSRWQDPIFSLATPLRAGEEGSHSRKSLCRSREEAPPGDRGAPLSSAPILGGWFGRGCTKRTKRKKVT
Outline: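 Recombinant SIRT7 (20 ng per well) pre-incubated 30 min with compound in SIRT Glo buffer, then SIRT Glo substrate added for 1 h before luminescence reading. Background-subtracted signal expressed as % inhibition relative to no-compound control.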

COLO32ODM cells = experiment: LDH cytotoxicity test, cancer cell line; format: cell-based, human; details: 48 hours
Protocol: as §2, §3

SW480 tumor xenograft = experiment: In vivo mouse tumor xenograft, SW480; details: nude mice, oral 10 mpk, 20 mpk, 40 mpk, 3 weeks
Protocol: (§1) The compounds of the present invention were administered to mouse tumor xenograft to measure tumor suppression in vivo test. BALB/C-nu female 5-week-old mice were introduced. COLO32ODM and SW480 cells, which are human colorectal cancer cells, were isolated from culture flasks using trypsin and prepared at a concentration of 1×10^8 cell/ml. It was mixed with Matrigel (Gibco, Cat. No. A14133-02) at a ratio of 1:1 and injected 100 μL subcutaneously into the dorsal side of 5-week-old mice. After 2 weeks, when the volume of the mouse tumor reached 100 mm^3, oral administration of the compound was started 5 times a week. (Day 0), After that, it was conducted for 3 weeks.
Dissolve the compound in 0.1% Carboxylmethyl cellulose (CMC) and 0.2% tween 80 solution at concentrations of 2 mg/ml, 4 mg/ml, and 8 mg/ml, and 100 ul was orally administered to achieve concentrations of 10 mpk, 20 mpk, and 40 mpk. In the negative control group, 0.1% Carboxylmethyl cellulose and 0.2% tween 80 solution were administered instead of the compound according to the same administration route and administration frequency. 6 mice were used for each experimental group (FIG. 3). The size of the tumor was measured in the long axis (length, L) and the short axis (width, W) once every 3 days, and the tumor volume (mm^3) was calculated as (L×W×W)/2 thereby the average for each group was calculated. […]

[1] = tested on: COLO32ODM tumor xenograft; experiment: In vivo mouse tumor xenograft, COLO32ODM
Protocol: as §1
In the negative control group, 0.1% Carboxylmethyl cellulose and 0.2% tween 80 solution were administered instead of the compound according to the same administration route and administration frequency. 6 mice were used for each experimental group (FIG. 3). The size of the tumor was measured in the long axis (length, L) and the short axis (width, W) once every 3 days, and the tumor volume (mm^3) was calculated as (L×W×W)/2 thereby the average for each group was calculated. Statistical processing was performed using the GraphPad Prism6 program, and a p-value of less than 0.05 was considered significant.
A 5-week-old nude mouse whose thymus was removed and whose T cells were reduced and whose immune system was suppressed was introduced, and human colorectal cancer cell lines, COLO32ODM and SW480, were subcutaneously injected.

CCNC(=O)N1CCN(Cc2ccc(C(=O)Nc3nc4ccccc4s3)cc2)CC1 [Compound 1-37, 4-(4-(benzo[d]thiazol-2-ylcarbamoyl)benzyl)-N-ethylpiperazine-1-carboxamide]
cytotoxicity (LDH release) compared to the positive control that damaged all cell membranes (WI38 cells; 100 μM): 29.9%
cytotoxicity (LDH release) compared to the positive control that damaged all cell membranes (WI38 cells; 500 μM): 41.6%
inhibition at 10 µM (SIRT7 protein): 81%
cytotoxicity (LDH release) compared to the positive control that damaged all cell membranes (COLO32ODM cells; 100 μM): 62.1%
cytotoxicity (LDH release) compared to the positive control that damaged all cell membranes (COLO32ODM cells; 500 μM): 62.0%
tumor size compared to the control group (SW480 tumor xenograft): reduced
tumor size compared to the control group ([1]; nude mice, oral 10 mpk, 20 mpk, 40 mpk, 3 weeks): reduced
dose dependence of tumor formation inhibitory effect ([1]; oral 10, 20, 40 mpk): concentration-dependent tumor formation inhibitory effect
tumor formation inhibitory effect ([1]; oral 40 mpk): most significant tumor formation inhibitory effect
